US8871934B2, “Fluorene compound and pharmaceutical use thereof” (Japan Tobacco Inc., priority 2008, dated 2014)
Where two headings read alike, the source gives them in different places.

Molecular target: human PDHK2 (hPDHK2) (Homo sapiens (Human), UniProt Q15119)
Assay: Inhibitory action of PDHK activity in vitro (kinase reaction, residual PDH activity measured)
Assay type: biochemical
[1] = PDHK inhibitory activity, class symbol of IC50
[2] = read-out: PDHK inhibitory activity IC50

Row | SMILES | IC50 [1] [nM] | IC50 [2] [nM]
1 | NC(=O)c1ccccc1-c1ccc2c(c1)C(O)(C(F)(F)F)c1ccccc1-2 (stereo not drawn) [compound 182] | > 1000 | > 10000
2 | CNC(=O)c1ccccc1-c1ccc2c(c1)C(O)(C(F)(F)F)c1ccccc1-2 (stereo not drawn) [compound 183] | > 1000 | > 10000
3 | CN(C)C(=O)c1ccccc1-c1ccc2c(c1)C(O)(C(F)(F)F)c1ccccc1-2 (stereo not drawn) [compound 184] | > 1000 | > 10000
4 | OC1(C(F)(F)F)c2ccccc2-c2c(Cl)cc(-c3ccncc3)cc21 (stereo not drawn) [compound 185] | < 100 | 53
5 | CN(c1ccccc1)c1ccc2c(c1)C(O)(C(F)(F)F)c1ccccc1-2 (stereo not drawn) [compound 186] | > 1000 | 5910
6 | OC1(C(F)(F)F)c2ccccc2-c2ccc(Oc3ccccc3)cc21 (stereo not drawn) [compound 187] | > 1000 | 2480
7 | O=C(O)c1ccc(-c2ccc3c(c2)C(O)(C(F)(F)F)c2ccccc2-3)cc1 (stereo not drawn) [compound 188] | 100 to 1000 | 383
8 | OCc1ccccc1-c1ccc2c(c1)C(O)(C(F)(F)F)c1ccccc1-2 (stereo not drawn) [compound 189] | > 1000 | 6000
9 | CC(=O)Nc1ccccc1-c1ccc2c(c1)C(O)(C(F)(F)F)c1ccccc1-2 (stereo not drawn) [compound 190] | > 1000 | > 10000
10 | CNC(=O)c1ccc(-c2ccc3c(c2)C(O)(C(F)(F)F)c2ccccc2-3)cc1 (stereo not drawn) [compound 191] | 100 to 1000 | 216
11 | CN(C)C(=O)c1ccc(-c2ccc3c(c2)C(O)(C(F)(F)F)c2ccccc2-3)cc1 (stereo not drawn) [compound 192] | 100 to 1000 | 182
12 | Nc1ccc(-c2ccc3c(c2)C(O)(C(F)(F)F)c2ccccc2-3)cc1 (stereo not drawn) [compound 193] | 100 to 1000 | 560
13 | OCc1ccc(-c2ccc3c(c2)C(O)(C(F)(F)F)c2ccccc2-3)cc1 (stereo not drawn) [compound 194] | 100 to 1000 | 368
14 | O=C(c1ccc2c(c1)C(O)(C(F)(F)F)c1ccccc1-2)N1CCCC1CO (stereo not drawn) [compound 195] | > 1000 | 5480
15 | Cc1cnc2c(c1)C(O)(C(F)(F)F)c1ccccc1-2 (stereo not drawn) [compound 196] | 100 to 1000 | 475
16 | CC(=O)Nc1ccc(-c2ccc3c(c2)C(O)(C(F)(F)F)c2ccccc2-3)cc1 (stereo not drawn) [compound 197] | 100 to 1000 | 298
17 | Cc1cc(-c2ccc3c(c2)C(O)(C(F)(F)F)c2ccccc2-3)ccn1 (stereo not drawn) [compound 198] | 100 to 1000 | 126
18 | NC(=O)c1ccc(-c2ccc3c(c2)C(O)(C(F)(F)F)c2ccccc2-3)cc1 (stereo not drawn) [compound 199] | 100 to 1000 | 182
19 | CCN(CC)C(=O)C1CN(C(=O)c2ccc3c(c2)C(O)(C(F)(F)F)c2ccccc2-3)C1 (stereo not drawn) [compound 200] | 100 to 1000 | 236
20 | O=C(c1ccc2c(c1)C(O)(C(F)(F)F)c1ccccc1-2)N1CC(C(=O)N2CCCC2)C1 (stereo not drawn) [compound 201] | 100 to 1000 | 162
21 | O=C(c1ccc2c(c1)C(O)(C(F)(F)F)c1ccccc1-2)N1CC(C(=O)N2CCCCC2)C1 (stereo not drawn) [compound 202] | 100 to 1000 | 247
22 | O=C(c1ccc2c(c1)C(O)(C(F)(F)F)c1ccccc1-2)N1CC(C(=O)N2CCC(O)CC2)C1 (stereo not drawn) [compound 203] | 100 to 1000 | 423
23 | Cc1ccncc1-c1cccc2c1-c1ccccc1C2(O)C(F)(F)F (stereo not drawn) [compound 204] | > 1000 | > 10000

Row | SMILES | IC50 [1] [nM] | IC50 [2] [nM]
24 | Oc1ccc(-c2ccc3c(c2)C(O)(C(F)(F)F)c2ccccc2-3)cc1 (stereo not drawn) [compound 205] | 100 to 1000 | 707
25 | COC(=O)C1CCN(C(=O)c2ccc3c(c2)C(O)(C(F)(F)F)c2ccccc2-3)C1 (stereo not drawn) [compound 206] | > 1000 | 2240
26 | CCC(=O)N1CCN(c2ccc3c(c2)C(O)(C(F)(F)F)c2ccccc2-3)CC1 (stereo not drawn) [compound 207] | 100 to 1000 | 998
27 | CC(C)C(=O)N1CCN(c2ccc3c(c2)C(O)(C(F)(F)F)c2ccccc2-3)CC1 (stereo not drawn) [compound 208] | 100 to 1000 | 677
28 | CC(C)(C)C(=O)N1CCN(c2ccc3c(c2)C(O)(C(F)(F)F)c2ccccc2-3)CC1 (stereo not drawn) [compound 209] | 100 to 1000 | 281
29 | COC(=O)N1CCN(c2ccc3c(c2)C(O)(C(F)(F)F)c2ccccc2-3)CC1 (stereo not drawn) [compound 210] | > 1000 | 1330
30 | CCOC(=O)N1CCN(c2ccc3c(c2)C(O)(C(F)(F)F)c2ccccc2-3)CC1 (stereo not drawn) [compound 211] | > 1000 | 1010
31 | CC(C)OC(=O)N1CCN(c2ccc3c(c2)C(O)(C(F)(F)F)c2ccccc2-3)CC1 (stereo not drawn) [compound 212] | 100 to 1000 | 685
32 | O=C(c1cnc2c(c1)C(O)(C(F)(F)F)c1ccccc1-2)N1CCC1 (stereo not drawn) [compound 213] | 100 to 1000 | 173
33 | N#Cc1cccc(-c2ccc3c(c2)C(O)(C(F)(F)F)c2ccccc2-3)c1 (stereo not drawn) [compound 214] | 100 to 1000 | 345
34 | O=C(c1ccc2c(c1)C(O)(C(F)(F)F)c1ccccc1-2)N1CCC(O)C1 (stereo not drawn) [compound 215] | > 1000 | 4600
35 | CN(C)C1CCN(C(=O)c2ccc3c(c2)C(O)(C(F)(F)F)c2ccccc2-3)C1 (stereo not drawn) [compound 216] | > 1000 | 2560
36 | O=C(O)C1CCN(C(=O)c2ccc3c(c2)C(O)(C(F)(F)F)c2ccccc2-3)C1 (stereo not drawn) [compound 217] | > 1000 | 5330
37 | COC(=O)C1CCN(c2ccc3c(c2)C(O)(C(F)(F)F)c2ccccc2-3)CC1 (stereo not drawn) [compound 218] | > 1000 | 1840
38 | COC(=O)c1cccc2c1-c1ccc(F)cc1C2(O)C(F)(F)F (stereo not drawn) [compound 219] | > 1000 | > 10000
39 | COC(=O)c1cccc2c1-c1cc(F)ccc1C2(O)C(F)(F)F (stereo not drawn) [compound 220] | 100 to 1000 | 488
40 | COC(=O)c1ccc(F)c2c1-c1ccccc1C2(O)C(F)(F)F (stereo not drawn) [compound 221] | > 1000 | > 10000
41 | O=C(O)C1CCN(c2ccc3c(c2)C(O)(C(F)(F)F)c2ccccc2-3)CC1 (stereo not drawn) [compound 222] | > 1000 | 5390
42 | CCOC(=O)C1CCN(c2ccc3c(c2)C(O)(C(F)(F)F)c2ccccc2-3)CC1 (stereo not drawn) [compound 223] | > 1000 | 2330
43 | N#Cc1ccc(-c2ccc3c(c2)C(O)(C(F)(F)F)c2ccccc2-3)cc1 (stereo not drawn) [compound 224] | 100 to 1000 | 214
44 | O=C(c1ccc2c(c1)C(O)(C(F)(F)F)c1ccccc1-2)N1CCC(CO)C1 (stereo not drawn) [compound 225] | 100 to 1000 | 619
45 | NC(=O)C1CCN(C(=O)c2ccc3c(c2)C(O)(C(F)(F)F)c2ccccc2-3)C1 (stereo not drawn) [compound 226] | > 1000 | 1140
46 | CNC(=O)C1CCN(C(=O)c2ccc3c(c2)C(O)(C(F)(F)F)c2ccccc2-3)C1 (stereo not drawn) [compound 227] | > 1000 | 1050

Row | SMILES | IC50 [1] [nM] | IC50 [2] [nM]
47 | CNC1CCN(C(=O)c2ccc3c(c2)C(O)(C(F)(F)F)c2ccccc2-3)C1 (stereo not drawn) [compound 228] | > 1000 | 2190
48 | CN(C)C(=O)C1CCN(C(=O)c2ccc3c(c2)C(O)(C(F)(F)F)c2ccccc2-3)C1 (stereo not drawn) [compound 229] | 100 to 1000 | 552
49 | NC(=O)C1CCN(c2ccc3c(c2)C(O)(C(F)(F)F)c2ccccc2-3)CC1 (stereo not drawn) [compound 230] | > 1000 | 3710
50 | CNC(=O)C1CCN(c2ccc3c(c2)C(O)(C(F)(F)F)c2ccccc2-3)CC1 (stereo not drawn) [compound 231] | > 1000 | 3610
51 | CN(C)C(=O)C1CCN(c2ccc3c(c2)C(O)(C(F)(F)F)c2ccccc2-3)CC1 (stereo not drawn) [compound 232] | > 1000 | 1990
52 | CCOC(=O)c1ccc(-c2cc(Cl)c3c(c2)C(O)(C(F)(F)F)c2ccccc2-3)cc1 (stereo not drawn) [compound 233] | 100 to 1000 | 142
53 | O=C(O)c1ccc(-c2cc(Cl)c3c(c2)C(O)(C(F)(F)F)c2ccccc2-3)cc1 (stereo not drawn) [compound 234] | < 100 | 58
54 | COc1nc2c(cc1C(=O)N1CCC1)C(O)(C(F)(F)F)c1ccccc1-2 (stereo not drawn) [compound 235] | 100 to 1000 | 803
55 | COC(=O)c1ccc(-c2ccc3c(c2)C(O)(C(F)(F)F)c2ccccc2-3)cc1Cl (stereo not drawn) [compound 236] | 100 to 1000 | 355
56 | O=C(O)c1ccc(-c2ccc3c(c2)C(O)(C(F)(F)F)c2ccccc2-3)cc1Cl (stereo not drawn) [compound 238] | 100 to 1000 | 252
57 | NC(=O)c1ccc(-c2ccc3c(c2)C(O)(C(F)(F)F)c2ccccc2-3)cc1Cl (stereo not drawn) [compound 239] | 100 to 1000 | 178
58 | CNC(=O)c1ccc(-c2ccc3c(c2)C(O)(C(F)(F)F)c2ccccc2-3)cc1Cl (stereo not drawn) [compound 240] | 100 to 1000 | 149
59 | CN(C)C(=O)c1ccc(-c2ccc3c(c2)C(O)(C(F)(F)F)c2ccccc2-3)cc1Cl (stereo not drawn) [compound 241] | < 100 | 98
60 | O=C(c1cc(-c2cccnc2)c2c(c1)C(O)(C(F)(F)F)c1ccccc1-2)N1CCC1 (stereo not drawn) [compound 242] | < 100 | 86
61 | OC1(C(F)(F)F)c2ccccc2-c2c(-c3cccnc3)cc(Cl)cc21 (stereo not drawn) [compound 243] | < 100 | 75
62 | OC1(C(F)(F)F)c2ccccc2-c2ccc(C3CC3)cc21 (stereo not drawn) [compound 244] | > 1000 | 2930
63 | OC1(C(F)(F)F)c2ccccc2-c2ccc(-c3cnco3)cc21 (stereo not drawn) [compound 245] | 100 to 1000 | 190
64 | CC(=O)N(C)C1CCN(C(=O)c2ccc3c(c2)C(O)(C(F)(F)F)c2ccccc2-3)C1 (stereo not drawn) [compound 246] | 100 to 1000 | 809
65 | Cc1noc(-c2ccc3c(c2)C(O)(C(F)(F)F)c2ccccc2-3)n1 (stereo not drawn) [compound 247] | 100 to 1000 | 547
66 | C/C=C/c1ccc2c(c1)C(O)(C(F)(F)F)c1ccccc1-2 (stereo not drawn) [compound 248] | > 1000 | 1020
67 | CCCCOc1ccc2c(c1)C(O)(C(F)(F)F)c1ccccc1-2 (stereo not drawn) [compound 249] | 100 to 1000 | 719
68 | Cn1nnc(-c2cccc3c2-c2ccccc2C3(O)C(F)(F)F)n1 (stereo not drawn) [compound 250] | > 1000 | 1610
69 | Cn1nnnc1-c1cccc2c1-c1ccccc1C2(O)C(F)(F)F (stereo not drawn) [compound 251] | > 1000 | > 10000
